In ChEMBL document CHEMBL1146610, “Improved gelatinase a selectivity by novel zinc binding groups containing galardin derivatives” (Bioorg Med Chem Lett, 2003):

What was measured:
[1] = molecular target: 72 kDa type IV collagenase (Homo sapiens, UniProt P08253); test: Inhibition of Matrix metalloprotease-2
Interstitial collagenase = molecular target: T1, Interstitial collagenase (Homo sapiens, UniProt P03956); test: Inhibition of matrix metalloprotease-1
T1 sequence (P03956 whole entry): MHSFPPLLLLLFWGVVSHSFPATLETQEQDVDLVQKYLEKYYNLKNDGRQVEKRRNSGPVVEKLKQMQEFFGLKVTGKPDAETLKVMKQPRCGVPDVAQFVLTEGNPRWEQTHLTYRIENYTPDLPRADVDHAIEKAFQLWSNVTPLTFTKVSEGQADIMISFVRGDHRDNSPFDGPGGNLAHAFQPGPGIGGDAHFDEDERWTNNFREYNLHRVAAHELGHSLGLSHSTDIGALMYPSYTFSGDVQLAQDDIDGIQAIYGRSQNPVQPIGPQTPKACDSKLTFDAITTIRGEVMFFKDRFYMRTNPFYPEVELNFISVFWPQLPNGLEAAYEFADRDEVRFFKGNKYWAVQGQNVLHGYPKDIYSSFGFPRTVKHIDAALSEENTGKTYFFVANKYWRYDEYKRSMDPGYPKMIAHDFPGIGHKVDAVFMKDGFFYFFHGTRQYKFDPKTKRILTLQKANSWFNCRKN

Chain of 72 kDa type IV collagenase (P08253 whole entry): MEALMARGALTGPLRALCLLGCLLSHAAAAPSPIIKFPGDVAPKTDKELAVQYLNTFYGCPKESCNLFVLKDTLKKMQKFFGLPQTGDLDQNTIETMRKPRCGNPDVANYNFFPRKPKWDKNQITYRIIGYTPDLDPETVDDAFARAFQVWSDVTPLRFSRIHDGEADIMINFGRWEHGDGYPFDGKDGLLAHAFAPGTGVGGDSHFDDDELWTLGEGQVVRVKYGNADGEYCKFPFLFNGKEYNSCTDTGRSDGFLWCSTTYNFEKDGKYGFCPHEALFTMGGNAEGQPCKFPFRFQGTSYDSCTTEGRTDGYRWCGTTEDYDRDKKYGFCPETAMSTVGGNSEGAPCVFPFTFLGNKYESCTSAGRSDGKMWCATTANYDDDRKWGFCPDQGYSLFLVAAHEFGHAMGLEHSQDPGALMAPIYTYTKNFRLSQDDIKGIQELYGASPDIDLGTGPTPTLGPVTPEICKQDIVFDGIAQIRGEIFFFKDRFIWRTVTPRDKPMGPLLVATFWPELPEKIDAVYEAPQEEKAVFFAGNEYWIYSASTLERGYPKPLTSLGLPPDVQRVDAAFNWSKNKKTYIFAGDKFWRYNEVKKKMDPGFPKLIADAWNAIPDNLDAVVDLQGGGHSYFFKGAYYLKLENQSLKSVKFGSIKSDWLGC

| Structure (SMILES) | IC50 [1] [µM] | IC50 (Interstitial collagenase) [µM] |
| --- | --- | --- |
| CNC(=O)[C@H](Cc1c[nH]c2ccccc12)NC(=O)[C@@H](CC(=O)c1ccc[nH]1)CC(C)C | 0.54 | 0.86 |
| CNC(=O)[C@H](Cc1c[nH]c2ccccc12)NC(=O)[C@@H](CC(=O)c1ccccn1)CC(C)C | 0.18 | 0.73 |
| CNC(=O)C(Cc1c[nH]c2ccccc12)NC(=O)[C@@H](CC(=O)O)CC(C)C (stereo partly specified) | 0.02 | – |

Other lines, results leading:

| IC50 [1] [µM] | IC50 (Interstitial collagenase) [µM] | Structure (SMILES) |
| --- | --- | --- |
| 0.55 | 0.05 | CNC(=O)C(Cc1c[nH]c2ccccc12)NC(=O)[C@@H](CC(=O)NN)CC(C)C (stereo partly specified) |
| 0.05 | 0.06 | CNC(=O)C(Cc1c[nH]c2ccccc12)NC(=O)[C@@H](CC(=O)Nc1ccccn1)CC(C)C (stereo partly specified) |
| 0.03 | > 10 | CNC(=O)C(Cc1c[nH]c2ccccc12)NC(=O)[C@@H](CC(=O)NNS(=O)(=O)c1ccc(C)cc1)CC(C)C (stereo partly specified) |
